Results published in US7888487B2, “Pyrazole derivative, medicinal composition containing the same, medicinal use thereof and intermediate in producing the same” (Kissei Pharmaceutical Co., Ltd., priority 2002, dated 2011).

Key:
[1] = molecular target: T1, human 1,5-anhydroglucitol/fructose/mannose transporter (human SMINT) (Homo sapiens, UniProt Q2M3M2); experiment: Confirmatory test for inhibitory activity on human 1,5-anhydroglucitol/fructose/mannose transporter (inhibition assay of methyl-α-D-glucopyranoside uptake activity); format: cell-based; conditions: COS-7 cells transiently expressing human SMINT; uptake of 1 mM methyl-α-D-glucopyranoside (α-MG), 1 hour, 37° C.; logit plot analysis
T1 construct: expressed in transfected cells; host or cells: COS-7 cells (RIKEN CELL BANK RCB0539), transient lipofection of SMINT/pME18S-FL
T1 sequence (Q2M3M2 1-681): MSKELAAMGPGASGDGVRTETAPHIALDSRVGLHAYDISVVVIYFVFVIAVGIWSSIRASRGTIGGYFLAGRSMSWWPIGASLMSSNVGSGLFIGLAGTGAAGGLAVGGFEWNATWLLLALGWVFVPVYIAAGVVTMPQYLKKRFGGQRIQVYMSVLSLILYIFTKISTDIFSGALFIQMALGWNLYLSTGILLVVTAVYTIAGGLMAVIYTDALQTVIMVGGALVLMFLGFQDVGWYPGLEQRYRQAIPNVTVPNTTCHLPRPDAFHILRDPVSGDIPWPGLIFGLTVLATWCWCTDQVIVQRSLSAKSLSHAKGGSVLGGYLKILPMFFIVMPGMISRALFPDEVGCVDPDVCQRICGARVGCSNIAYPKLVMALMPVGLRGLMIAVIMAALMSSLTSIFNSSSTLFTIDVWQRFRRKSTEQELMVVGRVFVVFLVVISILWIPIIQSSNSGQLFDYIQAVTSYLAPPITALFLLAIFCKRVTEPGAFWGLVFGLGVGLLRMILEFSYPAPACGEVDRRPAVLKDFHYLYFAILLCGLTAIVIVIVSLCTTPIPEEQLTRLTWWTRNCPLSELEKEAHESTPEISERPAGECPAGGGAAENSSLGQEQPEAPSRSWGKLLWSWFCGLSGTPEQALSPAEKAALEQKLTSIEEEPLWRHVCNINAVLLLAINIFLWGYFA
Experimental: (§1) Human SMINT-carrying expression plasmid SMINT/pME18S-FL (denotation of bacteria: Escherichia coli/SMINT2010324), which was deposited with NITE Patent Microorganisms Depositary on Mar. 12, 2002, was transfected to COS-7 cells (RIKEN CELL BANK RCB0539) by lipofection method. LIPOFECTAMINE PLUS reagent (Invitrogen) was used as the lipofection reagent. A day before the lipofection, COS-7 cells were suspended in D-MEM medium (Invitrogen) at 6×10^6 cells per 1 mL, and dispensed 50 μL per well of 96-well plate. The lipofection was performed by the following methods. For each well, 0.1 μg of the plasmid was diluted with 10 μL of D-MEM, added 0.5 μL of PLUS reagent, mixed gently, and kept stand for 15 minutes to prepare Plasmid Dilute Solution. For each well, 0.5 μL of LIPOFECTAMINE reagent was diluted with 10 μL of D-MEM to prepare LIPOFECTAMINE Dilute Solution. The Plasmid Dilute Solution was mixed with an equal volume of the LIPOFECTAMINE Dilute Solution, kept stand for 15 minutes, dispensed 20 μL per well of cell culture medium, and incubated at 37° C. under 5% CO2 for 5 hours. Then D-MEM containing 16.7% fetal bovine serum (Sanko Jun-yaku) was dispensed 100 μL per well. After 2 days culture, the cells were used for the inhibition assay of methyl-α-D-glucopyranoside uptake activity.
Confirmatory Test for Inhibitory Activity on Human 1,5-anhydroglucitol/fructose/mannose Transporter
(§2) 1) Preparation of Cells Transiently Expressing Human SMINT
The cells were prepared according to the method described in 1) of Test Example 2.
2) Inhibition Assay of methyl-α-D-glucopyranoside Uptake Activity
(§3) To Uptake Buffer consisting of 140 mM sodium chloride, 2 mM potassium chloride, 1 mM calcium chloride, 1 mM magnesium chloride, 10 mM 2-[2-(2-hydroxyethyl)-1-piperazinyl]-ethanesulfonic acid, and 5 mM tris(hydroxymethyl)aminomethane (pH 7.4), was added methyl-α-D-glucopyranoside (α-MG) composed of its non-radiolabeled form and ^14C-labeled form at 1 mM as the final concentration. For measurement of basal uptake, Basal Buffer was prepared by the addition of 140 mM choline chloride instead of sodium chloride of the Uptake Buffer. In order to determine the substrate specificity among natural sugars, natural sugars were solubilized in distilled water, diluted with distilled water into appropriate concentrations, and added to the Uptake Buffer to prepare Assay Buffer. […] To the cell lysates were added 150 μL per well of MicroScint 40 (Packard), mixed well, and the radioactivity was measured in a microscintillation counter TOPCOUNT (Packard). α-MG uptake by the cells treated with each concentration of test compounds was calculated as relative activity to control group, which is set as 100% uptake after deducting the basal uptake. […]

human SMINT = molecular target: T2, human SMINT (Homo sapiens, UniProt Q2M3M2); experiment: Confirmatory test for substrate specificity of human SMINT (inhibition assay of methyl-α-D-glucopyranoside uptake activity with natural sugars); format: cell-based; conditions: COS-7 cells transiently expressing human SMINT; 1 mM α-MG, 1 hour, 37° C.
T2 construct: expressed in transfected cells; host or cells: COS-7 cells (RIKEN CELL BANK RCB0539), transient lipofection of SMINT/pME18S-FL
T2 sequence (Q2M3M2 1-681): T1 sequence (Q2M3M2 1-681)
Source text: Confirmatory Test for Substrate Specificity of Human SMINT
as §2
as §1, with “After 2 days culture, the cells were used for the inhibition assay of methyl-α-D-glucopyranoside uptake activity.” left out
as §3, with “concentration.” for “concentration. For measurement of basal uptake, Basal Buffer was prepared by the addition of 140 mM choline chloride instead of sodium chloride of the Uptake Buffer. In order to determine the substrate specificity among natural sugars, natural sugars were solubilized in distilled water, diluted with distilled water into appropriate concentrations, and added to the Uptake Buffer to prepare Assay Buffer.”

| IC50 [1] [nM] | recognition as substrate by SMINT (inhibition of α-MG uptake, FIG. 2) (human SMINT) | SMILES |
| --- | --- | --- |
| 245 | – | COc1ccc(Cc2c(O[C@@H]3O[C@H](CO)[C@@H](O)[C@H](O)[C@H]3O)nn(-c3ccccc3F)c2C(C)C)cc1 [Example 99] |
| 296 | – | COc1ccc(Cc2c(O[C@@H]3O[C@H](CO)[C@@H](O)[C@H](O)[C@H]3O)nn(C(C)C)c2-c2ccc3c(c2)OCCO3)cc1 [Example 119] |
| – | recognizes | OC[C@H]1OC[C@H](O)[C@@H](O)[C@@H]1O [1,5-anhydroglucitol] |
| – | not | O=C[C@H](O)[C@@H](O)[C@@H](O)[C@H](O)CO [galactose] |
| 444 | – | CC(C)c1c(Cc2ccccc2)c(O[C@@H]2O[C@H](CO)[C@@H](O)[C@H](O)[C@H]2O)nn1C(C)C [Example 87, 4-Benzyl-3-(β-D-glucopyranosyloxy)-1,5-diisopropyl-1H-pyrazole] |
| – | recognizes | O=C(CO)[C@@H](O)[C@H](O)[C@H](O)CO [fructose] |
| 92 | – | COc1ccc(Cc2c(O[C@@H]3O[C@H](CO)[C@@H](O)[C@H](O)[C@H]3O)nn(C(C)C)c2-c2ccc(OC)cc2)cc1 [Example 1] |
